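Compound exposure: 48 hours, 5 concentrations, 96-well plates. Abbreviation: GI50, concentration required for 50% inhibition of growth. Definition used: TGI = concentration required for complete inhibition of growth.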
Legend:
Assay in all cases: inhibition of tumour cell growth, NCI panel, 48 h
BT-549 breast = system: BT-549 breast
DU-145 prostate = system: DU-145 prostate
HCC-2998 colon = system: HCC-2998 colon
HOP-62 NSCLC = system: HOP-62 NSCLC
KM12 colon = system: KM12 colon
NCI-H226 lung = system: NCI-H226 lung
OVCAR-3 ovarian = system: OVCAR-3 ovarian
SK-OV-3 ovarian = system: SK-OV-3 ovarian
U251 CNS = system: U251 CNS
UO-31 renal = system: UO-31 renal

In the case of `CC[C@@]1(O)C(=O)NCc2c1cc1n(c2=O)Cc2cc3cc4c(cc3nc2-1)OCO4`, the GI50 (BT-549 breast) is reported as 4.15 µM, the TGI (BT-549 breast) is reported as over 100 µM and the GI50 (DU-145 prostate) is reported as 0.13 µM. For the same molecule, the TGI (DU-145 prostate) was 2.02 µM, the GI50 (HCC-2998 colon) was 0.984 µM and the TGI (HCC-2998 colon) was over 89.1 µM. It also gave a GI50 (HOP-62 NSCLC) of 0.235 µM, a TGI (HOP-62 NSCLC) of 20.4 µM and a GI50 (KM12 colon) of 11.7 µM. It also gave a TGI (KM12 colon) of over 100 µM, a GI50 (NCI-H226 lung) of 2 µM and a TGI (NCI-H226 lung) of over 85.1 µM. It also gave a GI50 (OVCAR-3 ovarian) of 14.2 µM, a TGI (OVCAR-3 ovarian) of over 95.5 µM and a GI50 (SK-OV-3 ovarian) of 1.5 µM. For the same molecule, the TGI (SK-OV-3 ovarian) was over 82.2 µM, the GI50 (U251 CNS) was 0.408 µM and the TGI (U251 CNS) was 12.9 µM. The GI50 (UO-31 renal) was 1.48 µM and the TGI (UO-31 renal) was over 33.1 µM.

Molecule `Cc1cccc(C(C)O)n1` (stereo not given) has a TGI (BT-549 breast) of over 100 µM, a TGI (DU-145 prostate) of over 100 µM and a TGI (HCC-2998 colon) of over 100 µM. For the same molecule, the TGI (HOP-62 NSCLC) was over 100 µM, the TGI (KM12 colon) was over 100 µM and the TGI (NCI-H226 lung) was over 100 µM. For the same molecule, the TGI (OVCAR-3 ovarian) was over 100 µM, the TGI (SK-OV-3 ovarian) was over 100 µM and the TGI (U251 CNS) was over 100 µM. For the same molecule, the TGI (UO-31 renal) was over 100 µM.

For `COc1ccc(NC2=C(Sc3nc(C)cc(C)n3)C(=O)N(Cc3ccccc3)C2=O)cc1Cl`, the GI50 (BT-549 breast) was 89.5 µM, the TGI (BT-549 breast) was over 160 µM and the GI50 (DU-145 prostate) was over 160 µM. The TGI (DU-145 prostate) was over 160 µM, the GI50 (HCC-2998 colon) was over 160 µM and the TGI (HCC-2998 colon) was over 160 µM. For the same molecule, the GI50 (HOP-62 NSCLC) was 84.6 µM, the TGI (HOP-62 NSCLC) was over 160 µM and the GI50 (KM12 colon) was over 160 µM. It also gave a TGI (KM12 colon) of over 160 µM, a GI50 (NCI-H226 lung) of 39.5 µM and a TGI (NCI-H226 lung) of over 160 µM. The GI50 (OVCAR-3 ovarian) was over 160 µM, the TGI (OVCAR-3 ovarian) was over 160 µM and the GI50 (SK-OV-3 ovarian) was over 160 µM. For the same molecule, the TGI (SK-OV-3 ovarian) was over 160 µM, the GI50 (U251 CNS) was 55 µM and the TGI (U251 CNS) was over 160 µM. For the same molecule, the GI50 (UO-31 renal) was over 160 µM and the TGI (UO-31 renal) was over 160 µM.

In the case of `CN(C)c1cccc2[nH]c(-c3[nH]ncc3Nc3ccnc(N)n3)nc12`, the GI50 (BT-549 breast) is reported as 0.0165 µM, the TGI (BT-549 breast) is reported as 0.0979 µM and the GI50 (DU-145 prostate) is reported as 0.0175 µM. For the same molecule, the TGI (DU-145 prostate) was 1.03 µM, the GI50 (HCC-2998 colon) was 0.0276 µM and the TGI (HCC-2998 colon) was 0.488 µM. The GI50 (HOP-62 NSCLC) was 0.0273 µM, the TGI (HOP-62 NSCLC) was 0.629 µM and the GI50 (KM12 colon) was 0.024 µM. The TGI (KM12 colon) was 0.283 µM, the GI50 (NCI-H226 lung) was under 0.0159 µM and the TGI (NCI-H226 lung) was 0.193 µM. For the same molecule, the GI50 (OVCAR-3 ovarian) was under 0.0121 µM, the TGI (OVCAR-3 ovarian) was 1.09 µM and the GI50 (SK-OV-3 ovarian) was 0.073 µM. It also gave a TGI (SK-OV-3 ovarian) of 2.38 µM, a GI50 (U251 CNS) of under 0.0119 µM and a TGI (U251 CNS) of 1.33 µM. It also gave a GI50 (UO-31 renal) of under 0.0142 µM and a TGI (UO-31 renal) of 0.276 µM.

`[N-]=[N+]=Nc1ncc(-c2ccc(C(F)(F)F)cc2)c(NC2CCCCCC2)n1` was tested, and the GI50 (BT-549 breast) was over 10 µM, the TGI (BT-549 breast) was over 10 µM and the GI50 (DU-145 prostate) was over 10 µM. For the same molecule, the TGI (DU-145 prostate) was over 10 µM, the GI50 (HCC-2998 colon) was over 10 µM and the TGI (HCC-2998 colon) was over 10 µM. The GI50 (HOP-62 NSCLC) was over 10 µM, the TGI (HOP-62 NSCLC) was over 10 µM and the GI50 (KM12 colon) was over 10 µM. For the same molecule, the TGI (KM12 colon) was over 10 µM, the GI50 (NCI-H226 lung) was over 10 µM and the TGI (NCI-H226 lung) was over 10 µM. It also gave a GI50 (OVCAR-3 ovarian) of over 10 µM, a TGI (OVCAR-3 ovarian) of over 10 µM and a GI50 (SK-OV-3 ovarian) of over 10 µM. For the same molecule, the TGI (SK-OV-3 ovarian) was over 10 µM, the GI50 (U251 CNS) was over 10 µM and the TGI (U251 CNS) was over 10 µM. The GI50 (UO-31 renal) was over 10 µM and the TGI (UO-31 renal) was over 10 µM.

`Cc1cccc2c3c(sc12)C(c1ccc(Cl)cc1)C(C#N)=C(/N=C/c1ccc(Cl)cc1)O3` (stereo not given) was tested, and the GI50 (BT-549 breast) was 1.38 µM, the TGI (BT-549 breast) was over 57.9 µM and the GI50 (DU-145 prostate) was 0.485 µM. The TGI (DU-145 prostate) was over 100 µM, the GI50 (HCC-2998 colon) was 1.04 µM and the TGI (HCC-2998 colon) was 11.2 µM. It also gave a GI50 (HOP-62 NSCLC) of 0.573 µM, a TGI (HOP-62 NSCLC) of 36.5 µM and a GI50 (KM12 colon) of 0.448 µM. For the same molecule, the TGI (KM12 colon) was over 100 µM, the GI50 (NCI-H226 lung) was 0.75 µM and the TGI (NCI-H226 lung) was over 19.7 µM. The GI50 (OVCAR-3 ovarian) was 0.393 µM, the TGI (OVCAR-3 ovarian) was 6.81 µM and the GI50 (SK-OV-3 ovarian) was 3.62 µM. The TGI (SK-OV-3 ovarian) was 40 µM, the GI50 (U251 CNS) was 0.443 µM and the TGI (U251 CNS) was 21.3 µM. It also gave a GI50 (UO-31 renal) of 0.653 µM and a TGI (UO-31 renal) of over 100 µM.

Molecule `O=C1N=C2c3c(sc4c3CCCC4)N=CN2C1N=Nc1ccc(Cl)cc1` (stereo not given) has a GI50 (BT-549 breast) of 1.44 µM, a TGI (BT-549 breast) of 18.1 µM and a GI50 (DU-145 prostate) of 0.291 µM. For the same molecule, the TGI (DU-145 prostate) was 25.3 µM, the GI50 (HCC-2998 colon) was 24.4 µM and the TGI (HCC-2998 colon) was 91.2 µM. For the same molecule, the GI50 (HOP-62 NSCLC) was 41.1 µM, the TGI (HOP-62 NSCLC) was over 100 µM and the GI50 (KM12 colon) was 13.6 µM. It also gave a TGI (KM12 colon) of 44 µM, a GI50 (NCI-H226 lung) of 22.8 µM and a TGI (NCI-H226 lung) of over 100 µM. For the same molecule, the GI50 (OVCAR-3 ovarian) was 21.9 µM, the TGI (OVCAR-3 ovarian) was over 100 µM and the GI50 (SK-OV-3 ovarian) was 47.2 µM. The TGI (SK-OV-3 ovarian) was 97.6 µM, the GI50 (U251 CNS) was 20.2 µM and the TGI (U251 CNS) was over 100 µM. It also gave a GI50 (UO-31 renal) of 39.3 µM and a TGI (UO-31 renal) of over 100 µM.

`CC(C)(C)Cn1c(N)nc2ccc(-c3[nH]c(C(C)(C)C)nc3-c3ccc(F)cc3)nc21` was tested, and the GI50 (BT-549 breast) was 12.1 µM, the TGI (BT-549 breast) was 26 µM and the GI50 (DU-145 prostate) was 10.6 µM. It also gave a TGI (DU-145 prostate) of 23.5 µM, a GI50 (HCC-2998 colon) of 11.1 µM and a TGI (HCC-2998 colon) of 24.1 µM. It also gave a GI50 (HOP-62 NSCLC) of 14.2 µM, a TGI (HOP-62 NSCLC) of 29 µM and a GI50 (KM12 colon) of 10.3 µM. The TGI (KM12 colon) was 23.9 µM, the GI50 (NCI-H226 lung) was 12.2 µM and the TGI (NCI-H226 lung) was 35.9 µM. For the same molecule, the GI50 (OVCAR-3 ovarian) was 9.47 µM, the TGI (OVCAR-3 ovarian) was 23.7 µM and the GI50 (SK-OV-3 ovarian) was 4.36 µM. The TGI (SK-OV-3 ovarian) was 18.5 µM, the GI50 (U251 CNS) was 10.8 µM and the TGI (U251 CNS) was 25.2 µM. It also gave a GI50 (UO-31 renal) of 0.406 µM and a TGI (UO-31 renal) of 15.1 µM.

Molecule `O=C(Nc1ccccc1Cl)c1cnc2ccc(C3CCNCC3)cn12` has a GI50 (BT-549 breast) of over 73.7 µM, a TGI (BT-549 breast) of over 100 µM and a GI50 (DU-145 prostate) of 6.62 µM. It also gave a TGI (DU-145 prostate) of over 100 µM, a GI50 (HCC-2998 colon) of over 100 µM and a TGI (HCC-2998 colon) of over 100 µM. The GI50 (HOP-62 NSCLC) was 16.8 µM, the TGI (HOP-62 NSCLC) was over 100 µM and the GI50 (KM12 colon) was over 85.4 µM. The TGI (KM12 colon) was over 100 µM, the GI50 (NCI-H226 lung) was over 24.4 µM and the TGI (NCI-H226 lung) was over 100 µM. For the same molecule, the GI50 (OVCAR-3 ovarian) was 5.6 µM, the TGI (OVCAR-3 ovarian) was over 100 µM and the GI50 (SK-OV-3 ovarian) was 3.05 µM. It also gave a TGI (SK-OV-3 ovarian) of over 100 µM, a GI50 (U251 CNS) of 51.7 µM and a TGI (U251 CNS) of over 100 µM. The GI50 (UO-31 renal) was 2.13 µM and the TGI (UO-31 renal) was over 100 µM.

For `CC1CCC2(OC1)OC1CC3C4CC=C5CC(OC6OC(CO)C(OC7OC(C)C(OC8OC(C)C(O)C(O)C8O)C(O)C7O)C(O)C6OC6OC(C)C(O)C(O)C6O)CCC5(C)C4CCC3(C)C1C2C` (stereo not given), the TGI (BT-549 breast) was 3.07 µM, the TGI (DU-145 prostate) was 2.54 µM and the TGI (HCC-2998 colon) was 1.37 µM. It also gave a TGI (HOP-62 NSCLC) of over 100 µM, a TGI (KM12 colon) of 1.43 µM and a TGI (NCI-H226 lung) of 2.86 µM. The TGI (OVCAR-3 ovarian) was 3.31 µM, the TGI (SK-OV-3 ovarian) was 2.31 µM and the TGI (U251 CNS) was 1.96 µM. It also gave a TGI (UO-31 renal) of 1.67 µM.

Source: PubChem BioAssay (NCI)
